“And” between values parts separate entries of the source, which are not always exact repeats. Equal entries are not always repeated. Structures can show the parent of a compound that is named as a salt. Where two headings read alike, the source gives them in different places.
Tests used:
[1] = test system: IL-6 Secretion in Human Conjunctival Epithelial Cells; experiment: Inhibition of histamine-stimulated IL-6 secretion in cultured human conjunctival epithelial cells (ELISA); format: cell-based; conditions: for IC50: Homo sapiens, read-out: IL-6 IC50
Excerpt: (§1) Methods detailing the preparation of primary epithelial cell cultures and cytokine release studies using these cells have been described. See […], et al., "Secretion of proinflammatory cytokines by human conjunctival epithelial cells," Ocul Immunol Inflamm., 5:117-128 (1997). Briefly, cultures of human conjunctival epithelial cells were initiated from donor tissues obtained within eight hours post mortem by various eye banks. The tissues were enzymatically digested overnight. Epithelial cells were gently scraped from the tissue surface, dissociated into a single cell suspension, and cultured in keratinocyte growth medium (Clonetics® , San Diego, CA). Cells were used only through passage 6. Cultures were maintained in a preconfluent state to prevent differentiation. Cells were identified as epithelial by positive keratin staining. […] Cells were plated at 2x10^4 cells/well and cultured overnight at 5% CO2/37°C. The following day, fresh medium containing test compound was added directly to wells and the cells were incubated for 30 minutes prior to 24-hour stimulation with histamine (30 μM). Three separate culture wells were used for each treatment group. At harvest, supernatants were collected, centrifuged at 200 x g, and stored at -20°C. Samples were analyzed for IL-6 and IL-8 by ELISA (R&D Systems, Minneapolis, MN) as directed by the manufacturer. The sensitivities of each ELISA are as follows: […] The antagonist potency (IC50) was defined as the concentration of the drug required to produce 50% inhibition of the agonist-stimulated functional response. Data derived from the cytokine assays were calculated as mean and standard error (SEM) values which represent the variability among identically treated culture wells. The dose-dependent effect of pharmacological agents and IC50's were determined by linear regression. Data are expressed as mean ± S.E.M. from 3 - 5 independent experiments.

[2] = test system: IL-8 Secretion in Human Conjunctival Epithelial Cells; experiment: Inhibition of histamine-stimulated IL-8 secretion in cultured human conjunctival epithelial cells (ELISA); format: cell-based; conditions: for IC50: Homo sapiens, read-out: IL-8 IC50
Excerpt: as §1

histamine H1-receptor = conditions: published values (Sharif et al. 1994; Yanni et al. 1997), read-out: H1 Binding Ki, cited from earlier work
[3] = IL-6 and IL-8 secretion IC50 compared with H1 binding affinity
[4] = HCE cells, 30 minutes preincubation with test compound, then 24-hour stimulation with histamine (30 µM), ELISA
[5] = HCE exposed to 30 µM of histamine

IC50 [1, 4]	IC50 [2, 4]	Structure (SMILES)	Ki (histamine H1-receptor)	less potent inhibitors of IL-6 and IL-8 secretion than predicted from their histamine H1-receptor binding affinities [1, 3]	also measured
–	–	CN(C)CC/C=C1/c2ccccc2COc2ccc(CC(=O)O)cc21 [Olopatadine, Z-11-(3-Dimethylaminopropylidene)-6,11-dihydrodibenz[b,e]oxepin-2-acetic acid]	36 nM and 32 to 39 nM	–	IC50 ([1]; HCE): 5.5 nM; more potent as an inhibitor of cytokine secretion than predicted from binding data [1, 3]: approximately 10 fold; IC50 ([2]; HCE): 1.7 nM
2.5 nM	4 nM	CCOCCn1c(N2CCCN(C)CC2)nc2ccccc21 [Emedastine, 1H-Benzimidazole,1-(2-ethoxyethyl)-2-(hexahydro-4-methyl-1H-1,4-diazepin-1-yl),(E)-2-butenedioate (1:2)]	1.22 nM	–	–
–	–	NCCc1c[nH]cn1 [histamine]	–	–	increased IL-6 secretion [1, 5]: 1.59 ± 0.19 fold above basal levels; increased IL-8 secretion [2, 5]: 1.80 ± 0.28 fold above basal levels
1010 nM	652 nM	c1ccc(CN(CC2=NCCN2)c2ccccc2)cc1 [Antazoline, 4,5-Dihydro-N-phenyl-N-(phenylmethyl)-1 H-imidazole-2-methanamine]	38.4 nM	20 - 140 fold	Ki (histamine H1-receptor; listed as antazoline): 32 to 39 nM
4830 nM	1220 nM	CN(C)CCC(c1ccccc1)c1ccccn1 (stereo not shown) [Pheniramine, N,N-Dimethyl-γ-phenyl-2-pyridine-propanamine]	33.9 nM	20 - 140 fold	Ki (histamine H1-receptor; listed as pheniramine): 32 to 39 nM
25.1 nM	11.9 nM	C[C@@H]1CN([C@H]2CC[C@](C#N)(c3ccc(F)cc3)CC2)CC[C@]1(C(=O)O)c1ccccc1 [Levocabastine, (-)-traps-1-[cis-4-Cyano-4-(p-fluorophenyl)cyclohexyl]-3-methyl-4-phenylisonipecotic acid monohydrochloride]	52.6 nM	–	–
